Experimental data published in US10550117B2, “2-azabicyclo[3.1.0]hexan-3-one derivatives and methods of use” (Genentech, Inc., priority 2016, dated 2020).

Key:
[1] = Liver microsome stability; type: in vitro ADME; conditions: for HLM CL (human liver microsome clearance): human liver microsomes; for stability in human liver microsomes versus the corresponding pyrrolidinone comparator compound: qualitative comparison
Description: Metabolic stability assays in liver microsomes are conducted with pooled female CD-1 mouse, male Sprague-Dawley rat, male beagle dog, male cynomolgus monkey, and mixed male and female human liver microsomal incubations. The general assay conditions are as follows. Incubation mixtures consisted of liver microsomes (0.5 mg of microsomal protein/ml) and the test compound (1.0 μM) with or without NADPH (1.0 mM) in the potassium phosphate buffer (100 mM; pH 7.4) with a final incubation volume of 0.25 ml. Reactions are initiated by the addition of NADPH or buffer and shaken in a water bath open to the air at 37° C. At times 0, 20, 40, and 60 min, aliquots (50 μl) are removed and added to termination mixtures (100 μl) containing acetonitrile and an internal standard. The samples are then centrifuged for 10 min at 2000 g. The supernatant (90 μl) is removed, combined with 180 μl of water, and analyzed by LC-MS/MS.
Metabolic stability of the test compounds were evaluated in human liver microsomes following known protocols described in Halladay, et al. Drug Metabol. Lett. 2007, 1:67-72.

[2] = biological target: nuclear factor-kappa B (NF-kB)-inducing kinase (NIK) (Homo sapiens (Human), UniProt Q99558); test: NIK enzyme inhibition assay (Transcreener ADP fluorescence polarization); type: biochemical; conditions: for Ki: purified NIK 0.5 nM, 10 μM ATP, Morrison equation, read-out: NIK ADP-FP Ki; for NIK enzyme inhibition, potency in words relative to the other stereoisomers: stereoisomers separated by chiral SFC, qualitative
Chain of nuclear factor-kappa B (NF-kB)-inducing kinase (NIK) (Q99558 whole entry): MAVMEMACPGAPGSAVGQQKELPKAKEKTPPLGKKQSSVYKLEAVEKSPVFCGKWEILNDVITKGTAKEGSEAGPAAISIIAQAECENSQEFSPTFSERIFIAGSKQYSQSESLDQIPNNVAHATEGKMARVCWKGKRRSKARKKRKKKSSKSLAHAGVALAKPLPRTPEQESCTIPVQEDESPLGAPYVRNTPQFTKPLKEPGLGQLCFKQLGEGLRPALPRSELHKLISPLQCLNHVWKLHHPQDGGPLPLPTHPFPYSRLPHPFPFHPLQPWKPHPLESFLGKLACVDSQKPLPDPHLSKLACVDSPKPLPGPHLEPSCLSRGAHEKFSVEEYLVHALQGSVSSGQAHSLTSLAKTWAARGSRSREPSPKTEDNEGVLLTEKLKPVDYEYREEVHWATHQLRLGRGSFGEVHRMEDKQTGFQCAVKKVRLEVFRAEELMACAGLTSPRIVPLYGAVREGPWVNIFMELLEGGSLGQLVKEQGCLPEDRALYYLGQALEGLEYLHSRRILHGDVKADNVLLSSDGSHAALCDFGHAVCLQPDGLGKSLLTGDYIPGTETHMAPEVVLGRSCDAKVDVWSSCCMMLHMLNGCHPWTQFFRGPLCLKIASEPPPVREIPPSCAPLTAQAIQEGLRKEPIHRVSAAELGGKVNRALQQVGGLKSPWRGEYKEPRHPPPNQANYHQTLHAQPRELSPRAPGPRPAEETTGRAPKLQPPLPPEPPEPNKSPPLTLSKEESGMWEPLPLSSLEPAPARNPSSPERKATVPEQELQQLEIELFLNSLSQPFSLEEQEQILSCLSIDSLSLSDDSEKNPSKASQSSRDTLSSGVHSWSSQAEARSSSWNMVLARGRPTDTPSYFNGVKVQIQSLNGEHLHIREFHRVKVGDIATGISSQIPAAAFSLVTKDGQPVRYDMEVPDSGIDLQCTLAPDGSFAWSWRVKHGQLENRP
Description: The ability of the nuclear factor-kappa B (NF-kB)-inducing kinase (NIK) to catalyze the hydrolysis of adenosine-5′-triphosphate (ATP) was monitored using the Transcreener ADP (adenosine-5′-diphosphate) assay (BellBrook Labs). […] Reactions were quenched by the addition of 20 mM 2,2′,2″,2′″-(ethane-1,2-diyldinitrilo)tetraacetic acid and 0.01% Brij 35. The tracer bound to the antibody was displaced by the ADP generated during the NIK reaction, which causes a decrease in fluorescence polarization that was measured by laser excitation at 633 nm with a Fluorescence Correlation Spectroscopy Plus reader (Evotec AG). Equilibrium dissociation constant (Ki) values for NIK inhibitors are calculated from plots of activity vs. inhibitor concentration using Morrison's quadratic equation that accounts for the potential of tight binding, and by also applying the conversion factor that accounted for competitive inhibition and the concentration of substrate used in the assay relative to its Michaelis constant (Km).

[3] = test system: p52 (NF-kB2) nuclear translocation in HeLa cells; test: p52 HeLa nuclear translocation assay (anti-lymphotoxin beta receptor antibody stimulated); type: cell-based; conditions: Homo sapiens, 100 ng/mL anti-lymphotoxin beta receptor antibody
Description: (§1) (3) A third set of cell assays are used to define the selectivity of NIK inhibitors toward inhibition of classical vs. non-classical NF-kB signaling and rely on quantification of the nuclear translocation of p52 (NF-kB2) and REL-A (p65) using high content cellular imaging. For the p52 (non-classical NF-kB signaling) nuclear translocation assay, HeLa cells are treated with different concentrations of compounds (0.2% DMSO final) in medium containing 10% fetal bovine serum and then stimulated with 100 ng/mL of an anti-lymphotoxin beta receptor antibody (R&D Systems) for 5 hours. In the REL-A nuclear translocation assay, HeLa cells are incubated with compounds (0.2% DMSO final) for 4.5 hours in medium containing 10% fetal bovine serum before stimulating them with 10 ng/mL tumor necrosis factor (TNF)-α (R&D Systems) for 30 minutes. Cells are fixed with 4% paraformaldehyde, permeabilized by adding 0.1% Triton X-100 in phosphate buffered saline, and then are incubated with either 2 μg/mL anti-p52 antibody (Millipore) or 400 ng/mL anti-REL-A (p65) antibody (Santa Cruz Biotechnology). Finally, the cells are incubated with an Alexa488-labeled secondary antibody (Invitrogen) and DRAQ5 DNA stain (Biostatus). Imaging is carried out using an Opera reader (Perkin Elmer) and data are analyzed with the aid of Acapella software (Perkin Elmer). The p52 or REL-A translocation into the nucleus is quantified by the ratio of the nuclear to cytoplasmic signal intensity. […] The test compounds have the corresponding inhibitory values (IC50) for NIK REL-A (p65) and p52 Translocation Assays as set forth in Table B2.

[4] = test system: REL-A (p65) nuclear translocation in HeLa cells; test: REL-A HeLa nuclear translocation assay (TNF-α stimulated, high content imaging); type: cell-based; conditions: Homo sapiens, 10 ng/mL TNF-α
Description: as §1

Hepatocyte stability = type: in vitro ADME; conditions: human hepatocytes
Description: General. Metabolic stability assays in hepatocytes are conducted using cryopreserved pooled female CD-1 mouse, male Sprague-Dawley rat, male beagle dog, male cynomolgus monkey, and mixed male and female human hepatocytes (CellzDirect). Vials of hepatocytes are thawed rapidly in a water bath set at 37° C. and then are diluted with Dulbecco's modified Eagle's medium (DMEM), pH 7.4. Cells are isolated by centrifugation, pooled, and resuspended in DMEM at 1.0 million viable cells/ml. Membrane integrity of the cells is assessed by trypan blue exclusion. The test compound is dissolved in dimethyl sulfoxide at a final concentration of 10 mM. This test compound stock is diluted further to 2 μM in DMEM (125 μl) before the addition of an equal volume of the 10^6 cells/ml cell suspension. The test compound (final incubation concentration of 1.0 μM with 0.1% dimethyl sulfoxide) and cells (final concentration of 0.5×10^6 cells/ml) are incubated at 37° C. in a 95% air/5% CO2 atmosphere for 3 h. Aliquots (50 μl) are removed at 0, 1, 2, and 3 hours and added to termination mixtures (100 μl) containing acetonitrile and an internal standard. The samples are then centrifuged for 10 min at 2000 g. The supernatant (90 μl) is removed, combined with 180 μl of water, and analyzed by LC-MS/MS.
Metabolic stability of the test compounds were evaluated also in human hepatocytes, following protocols described in Hallifax, et al. Drug Metabol. Disposition, 2005, 33:1852-1858.

SMILES: COc1ccn2c(C(N)=O)nc(-c3cccc(C#C[C@@]4(O)C(=O)N(C)[C@@H]5C[C@@H]54)c3)c2c1 [Compound 4, 1-(3-(((1R,4R,5S)-4-hydroxy-2-methyl-3-oxo-2-azabicyclo[3.1.0]hexan-4-yl)ethynyl)phenyl)-7-methoxyimidazo[1,5-a]pyridine-3-carboxamide]
- HLM CL (human liver microsome clearance) [1]: 12 mL/min/kg
- stability in human liver microsomes versus the corresponding pyrrolidinone comparator compound [1]: better stability
- Ki [2]: 0.05 nM
- NIK enzyme inhibition, potency in words relative to the other stereoisomers [2]: most potent NIK enzyme inhibitor among the 4 stereoisomers

SMILES: CN1CC[C@@](O)(C#Cc2cccc(-n3nc(C(N)=O)c4cccnc43)c2)C1=O [Compound C-1]
- IC50 [3]: 79.5 nM
- IC50 [4]: > 20000 nM

SMILES: CN1C(=O)C(O)(C#Cc2cccc(-c3nc(C(N)=O)c(N)s3)c2)C2CC21 (single isomer, unassigned) [5-amino-2-(3-((4-hydroxy-2-methyl-3-oxo-2-azabicyclo[3.1.0]hexan-4-yl)ethynyl)phenyl)thiazole-4-carboxamide]
- NIK enzyme inhibition, potency in words relative to the other stereoisomers [2]: less potent NIK enzyme inhibitor than Compound 6

SMILES: COc1ccn2c(C(N)=O)nc(-c3cccc(C#C[C@]4(O)C(=O)N(C)[C@H]5C[C@H]54)c3)c2c1 [1-(3-(((1S,4S,5R)-4-hydroxy-2-methyl-3-oxo-2-azabicyclo[3.1.0]hexan-4-yl)ethynyl)phenyl)-7-methoxyimidazo[1,5-a]pyridine-3-carboxamide]
- NIK enzyme inhibition, potency in words relative to the other stereoisomers [2]: no measurable inhibition

SMILES: COc1ccn2c(C(N)=O)nc(-c3cccc(C#C[C@@]4(O)C(=O)N(C)[C@H]5C[C@H]54)c3)c2c1 [1-(3-(((1 S,4R,5R)-4-hydroxy-2-methyl-3-oxo-2-azabicyclo[3.1.0]hexan-4-yl)ethynyl)phenyl)-7-methoxyimidazo[1,5-a]pyridine-3-carboxamide]
- NIK enzyme inhibition, potency in words relative to the other stereoisomers [2]: second most potent NIK enzyme inhibitor among the 4 stereoisomers

SMILES: CN1C(=O)[C@@](O)(C#Cc2cccc(-n3nc(C(N)=O)c4cccnc43)c2)[C@@H]2C[C@@H]21 [1-(3-(((1 S,4S,5R)-4-hydroxy-2-methyl-3-oxo-2-azabicyclo[3.1.0]hexan-4-yl)ethynyl)phenyl)-1H-pyrazolo[3,4-b]pyridine-3-carboxamide]
- NIK enzyme inhibition, potency in words relative to the other stereoisomers [2]: no measurable inhibition

SMILES: CN1C(=O)[C@@](O)(C#Cc2cccc(-c3nc(C(N)=O)n4ccccc34)c2)[C@H]2C[C@H]21 [1-(3-(((1R,4S,5S)-4-hydroxy-2-methyl-3-oxo-2-azabicyclo[3.1.0]hexan-4-yl)ethynyl)phenyl)imidazo[1,5-a]pyridine-3-carboxamide]
- NIK enzyme inhibition, potency in words relative to the other stereoisomers [2]: third most potent NIK enzyme inhibitor among the 4 stereoisomers

SMILES: CN1C(=O)[C@@](O)(C#Cc2cccc(-n3nc(C(N)=O)c4cccnc43)c2)[C@H]2C[C@H]21 [1-(3-(((1R,4S,5S)-4-hydroxy-2-methyl-3-oxo-2-azabicyclo[3.1.0]hexan-4-yl)ethynyl)phenyl)-1H-pyrazolo[3,4-b]pyridine-3-carboxamide]
- NIK enzyme inhibition, potency in words relative to the other stereoisomers [2]: no measurable inhibition

SMILES: CN1C(=O)[C@](O)(C#Cc2cccc(-c3nc(C(N)=O)n4ccccc34)c2)[C@@H]2C[C@@H]21 [1-(3-(((1 S,4R,5R)-4-hydroxy-2-methyl-3-oxo-2-azabicyclo[3.1.0]hexan-4-yl)ethynyl)phenyl)imidazo[1,5-a]pyridine-3-carboxamide]
- NIK enzyme inhibition, potency in words relative to the other stereoisomers [2]: second most potent NIK enzyme inhibitor among the 4 stereoisomers

SMILES: COc1ccn2c(C(N)=O)nc(-c3cccc(C#C[C@]4(O)C(=O)N(C)[C@@H]5C[C@@H]54)c3)c2c1 [1-(3-(((1R,4S,5S)-4-hydroxy-2-methyl-3-oxo-2-azabicyclo[3.1.0]hexan-4-yl)ethynyl)phenyl)-7-methoxyimidazo[1,5-a]pyridine-3-carboxamide]
- NIK enzyme inhibition, potency in words relative to the other stereoisomers [2]: third most potent NIK enzyme inhibitor among the 4 stereoisomers

SMILES: CN1C(=O)[C@](O)(C#Cc2cccc(-c3nc(C(N)=O)c4ccccn34)c2)[C@@H]2C[C@@H]21 [3-(3-(((1 S,4R,5R)-4-hydroxy-2-methyl-3-oxo-2-azabicyclo[3.1.0]hexan-4-yl)ethynyl)phenyl)imidazo[1,5-a]pyridine-1-carboxamide]
- NIK enzyme inhibition, potency in words relative to the other stereoisomers [2]: second most potent NIK enzyme inhibitor among the 4 stereoisomers

SMILES: CN1CC[C@@](O)(C#Cc2cccc(-c3nc(C(N)=O)c4ccccn34)c2)C1=O [Compound C-5]
- IC50 [3]: 240 nM
- IC50 [4]: > 20000 nM

SMILES: CN1CC[C@@](O)(C#Cc2cccc(-c3nc(C(N)=O)c(N)s3)c2)C1=O [Compound C-6, reference compound]
- HLM CL (human liver microsome clearance) [1]: 5.1 mL/min/kg
- IC50 [3]: 79.1 nM
- Ki [2]: 0.13 nM
- Hep CL (human hepatocyte clearance) (Hepatocyte stability): 1.1 mL/min/kg
- IC50 [4]: > 5000 nM

SMILES: CN1C(=O)[C@](O)(C#Cc2cccc(-c3nc(C(N)=O)c(N)s3)c2)[C@H]2C[C@H]21 [Compound 6, 5-amino-2-(3-(((1R,4R,5S)-4-hydroxy-2-methyl-3-oxo-2-azabicyclo[3.1.0]hexan-4-yl)ethynyl)phenyl)thiazole-4-carboxamide]
- HLM CL (human liver microsome clearance) [1]: 1.6 mL/min/kg
- stability in human liver microsomes versus the corresponding pyrrolidinone comparator compound [1]: better stability
- Ki [2]: 0.05 nM
- NIK enzyme inhibition, potency in words relative to the other stereoisomers [2]: most potent NIK enzyme inhibitor among the 4 stereoisomers
- Hep CL (human hepatocyte clearance) (Hepatocyte stability): 2.7 mL/min/kg

SMILES: CN1C(=O)[C@@](O)(C#Cc2cccc(-c3nc(C(N)=O)c4ccccn34)c2)[C@@H]2C[C@@H]21 [3-(3-(((1S,4S,5R)-4-hydroxy-2-methyl-3-oxo-2-azabicyclo[3.1.0]hexan-4-yl)ethynyl)phenyl)imidazo[1,5-a]pyridine-1-carboxamide]
- NIK enzyme inhibition, potency in words relative to the other stereoisomers [2]: third most potent NIK enzyme inhibitor among the 4 stereoisomers

SMILES: CN1C(=O)[C@@](O)(C#Cc2cccc(-c3nc(C(N)=O)n4ccccc34)c2)[C@@H]2C[C@@H]21 [1-(3-(((1 S,4S,5R)-4-hydroxy-2-methyl-3-oxo-2-azabicyclo[3.1.0]hexan-4-yl)ethynyl)phenyl)imidazo[1,5-a]pyridine-3-carboxamide]
- NIK enzyme inhibition, potency in words relative to the other stereoisomers [2]: no measurable inhibition
